The values that follow come from US10576078B2 (Council of Scientific & Industrial Research, priority 2017, dated 2020).

Where two headings read alike, the source gives them in different places. Some results are limits rather than exact numbers.

For data set [1] the following is noted: cited from earlier work.
For a further data set, the system named is CrkL. As to the kind of experiment: Immunoblotting of CrkL phosphorylation in K562 cells. To be noted: 30 min, Y207. Format: cell-based, Human. How it is done:
K562 cells were treated as indicated for 30 min and stat5 phosphorylation at Y694 or CrkL phosphorylation at Y207 were assessed by immunoblotting. Total stat5 or β-actin expression was assessed to ensure equal loading. Pio was used as a negative control and IMT was used as a positive control. Data is one representative of 3 independent experiments.
K562 cells were cultured in 6 well plates and treated as indicated in figures or descriptions of FIG. 1E, FIG. 1G and FIG. 2D-E. Cells were then homogenized in lysis buffer containing 50 mM Tris-HCl, pH 7.5, 150 mM NaCl, 1% NP40, 5 mM EDTA, 1 mM DTT, protease and phosphatase inhibitor cocktails (Sigma) and incubated on ice for 30 min followed by 5 cycles of freeze-thaw. Samples were then centrifuged at 14000 rpm at 4° C. for 30 min. Supernatants were then quantified by Bichinchonic acid (Sigma)-based protein estimation. Equal amount of proteins were solubilized in Laemmli buffer, and were resolved by 10%-12% SDS PAGE and transferred onto PVDF membranes (Millipore; Billerica, Mass.). Membranes were blocked in 5% (w/v) non-fat dried milk powder (Sigma) in PBS containing 0.2% Tween 20 (Sigma). […] Immunoreactivity was detected using a chemiluminescent HRP Substrate (Millipore) in a LAS 4010 Chemi-doc Imager (GE Healthcare, Little Chalfont, UK). […]

Data set [2] concerns Peripheral blood mononuclear cells from control donors. Nature of the data set: Apoptosis by annexin V/PI staining in PBMC from control donors. The data set is classed as cell-based, Human. To be noted: 5 μM, 48 h.
For data set [3], the system named is CD34+ cells from healthy donors. Here is the method:
(§1) Determination of CFZ's Effect on Cell Viability and Apoptosis • a. CellTitre-Glo assay: Cell viability (in FIG. 1B, FIG. 4 and FIG. 6A) assays was performed using the ATP-based CellTiter-Glo Luminescent cell viability assay (Promega Madison, Wis.) as per the manufacturer's instruction. Briefly, (1.25×10^5) K562 cells/ml (FIG. 1B and FIG. 4) or CD34+ cells from healthy donors (FIG. 6A) were cultured in 48-well plates and were treated as indicated in the respective figures and figure descriptions (vehicle; V=0.1% DMSO). Cells were then incubated with CellTitre-Glo reagent for 15 min. Luminescence was recorded in a GloMax-96 Microplate luminometer (Promega, Madison, Wis.) with an integration time of 1 s per well. • b. Analysis of apoptosis by Annexin V staining and flow cytometry • K562 (FIG. 1C-D) and primary CP-CML cells (FIG. 1H-I) were cultured in 6 well plates (2×10^5 cells/well) and were treated with indicated concentrations of compounds as described in respective figures and their descriptions. Cells were then harvested and washed, and incubated in binding buffer (Annexin V Binding Buffer, BD Pharmingen) with 0.3% Annexin V-FITC and PI for 15 min at room temperature in dark. Apoptosis was measured by FACSCalibur flow cytometer (Becton Dickenson, San Jose, Calif.). • c. TUNEL assay • Pro-apoptotic potential was analysed using a Fluorometric APO-BrdU™ TUNEL Assay Kit (Invitrogen) according to the manufacturer's protocol (FIG. 1F). Cells were treated with Vehicle (0.1% DMSO) or CFZ (5 μM) for 48 h. Cells were then fixed in formaldehyde (4%) for 25 min at 4° C., permeabilized with 0.2% Triton-X100 and washed with PBS. Cells were then incubated in Terminal Deoxynucleotidyl Transferase (TdT) reaction buffer without TdT enzyme for 7 minutes at room temperature and then in TdT buffer with TdT enzyme at 37° C. in dark. After termination of TdT reaction, cells were stained with 5 μg/ml of PI for 15 min in dark followed by washing and analysed with fluorescence microscopy.

The subject of data set [4] is K562 cells. As to the kind of experiment: K562 cell viability, CellTiter-Glo luminescent assay. Conditions: 48 h; for IC50: Homo sapiens. The data set is classed as cell-based, Human. Here is the method: K562 cells were treated with indicated concentrations of CFZ for 24 h or 48 h, cell viability was then assessed using the CellTiter-Glo luminescent cell viability assay (Promega). Data is mean±SEM of three independent experiments (each in triplicates). IC50 was calculated using Graphpad prism 5 software.
K562 cells were treated as indicated for 48 h and cell viability was determined by CellTiter-Glo luminescent cell viability assay (A) graphical representation of mean±SEM of three independent experiments.
as §1

Data set [5] relates to K562 cells. As to the kind of experiment: Western blotting of apoptosis proteins in K562 cells. The data set is classed as cell-based, Human. How it is done: PARP cleavage in K562 cells was assessed by western blotting. One representative of three independent experiments is shown.
The expression of indicated proteins was determined by immunoblotting in K562 cells following indicated treatments. One representative of three independent experiments is shown.
K562 cells were cultured in 6 well plates and treated as indicated in figures or descriptions of FIG. 1E, FIG. 1G and FIG. 2D-E. Cells were then homogenized in lysis buffer containing 50 mM Tris-HCl, pH 7.5, 150 mM NaCl, 1% NP40, 5 mM EDTA, 1 mM DTT, protease and phosphatase inhibitor cocktails (Sigma) and incubated on ice for 30 min followed by 5 cycles of freeze-thaw. Samples were then centrifuged at 14000 rpm at 4° C. for 30 min. Supernatants were then quantified by Bichinchonic acid (Sigma)-based protein estimation. Equal amount of proteins were solubilized in Laemmli buffer, and were resolved by 10%-12% SDS PAGE and transferred onto PVDF membranes (Millipore; Billerica, Mass.). Membranes were blocked in 5% (w/v) non-fat dried milk powder (Sigma) in PBS containing 0.2% Tween 20 (Sigma). The membranes were then sequentially incubated with primary and secondary antibodies in PBS containing 0.2% Tween 20 and 2.5% BSA (with 3 washes in between). Immunoreactivity was detected using a chemiluminescent HRP Substrate (Millipore) in a LAS 4010 Chemi-doc Imager (GE Healthcare, Little Chalfont, UK). Antibodies used: phospho-STAT5, STAT5, cleaved PARP and caspases-3, -8, -9, pCrkL, Bcl2 and Bax antibodies were from Cell Signaling Technology (Boston, Mass.). Mouse monoclonal anti-β-Actin-Peroxidase and horse raddish peroxidase-conjugated secondary antibodies were from Sigma-Aldrich. For immunoblotting all primary antibodies were used in 1:1000 dilutions except β-actin (1:50000). Secondary antibodies were used at 1:10000 dilutions.

As to `CC(C)/N=c1\cc2n(-c3ccc(Cl)cc3)c3ccccc3nc-2cc1Nc1ccc(Cl)cc1` [CFZ, Clofazimine], in data set [1] (following daily oral administration of 100 mg CFZ), the “average human plasma level of CFZ” value is recorded as 0.7 mg/L. Besides, the “human plasma Cmax of CFZ” value in data set [1] (human plasma) is 0.4 to 4 µg/mL. The CrkL phosphorylation entry in the data set with CrkL is reported as “did not alter”. For the same molecule, the “apoptosis in cells from control donors” value in data set [2] is on record as “didn't affect”. In data set [3], the “apoptosis in CD34+ cells from healthy donor by Annexin V” value is given as “no apoptosis” and the “viability of CD34+ hematopoietic progenitor cells from healthy controls” value is given as “No loss of survival”. In addition, the “combination index (CI)” value in the data set on K562 cells [4] (CFZ with dasatinib, Compusyn) was below 1. The “combination index (CI)” value with K562 cells [4] (CFZ with imatinib, Compusyn program) is below 1. The IC50 in the data set with K562 cells [4] (FIG. 1B, read-out: IC50 (48 h), reduction of viability) was determined as 5.85 µM. Besides, in the data set with K562 cells [4] (drug alone, FIG. 4A, read-out: IC50, K562 cell viability assay (48 h)), the 50% inhibitory concentration (IC50) is 4.13 µM. In the data set on K562 cells [5], the Bax expression result is on record as “increased”, the Bcl-2 expression entry is “decreased”, the caspase-3 activation result is recorded as “activated” and the caspase-9 activation entry is listed as “activated”. For the same molecule, in the data set with K562 cells [5], the “cytochrome C release” value is given as “induced”. In the data set on K562 cells [5] (western blotting), the “apoptosis as determined by PARP cleavage” value is recorded as “induces apoptosis”.
